7 compounds from patent publication US10071108B2, “Methods and pharmaceutical compositions for the treatment of hepatitis b virus infection” (INSERM (INSTITUT NATIONAL DE LA SANTÉ ET DE LA RECHERCHE …, priority 2013, dated 2018) can be followed below.

The test system of test [1] is HBV. Briefly: Secretion of HBV DNA in supernatant of HBV infected HepaRG cells (quantitative PCR). It is filed as cell-based, hepatitis B virus. The conditions noted are these: for effect on secretion of HBV DNA (virions) in supernatant: supernatant day 14, quantitative PCR. The source says: (§1) Cell supernatants were collected 14 days post infection for quantification of HBsAg, HBeAg (Architec Abbott) or HBV DNA by quantitative PCR using rcDNA primers (n=3±SEM). FIG. 2A—Both FXR agonists, GW4064 and 6ECDCA, inhibit the secretion of HBsAg and HBeAg in the supernatant in a dose-dependent manner whereas UDCA and 052EDL133 have no effect on the antigen secretion. FIG. 2B—Both FXR agonists, GW4064 and 6ECDCA, inhibit the secretion of infectious HBV DNA positive viral particles in the supernatant in a dose-dependent manner. […] FIG. 2C—The FXR agonist PXL007 represses HBsAg, HBeAg and HBV DNA in a dose-dependent manner.
Differentiated HepaRG cells were infected and treated as described in FIG. 1 legend. Cell supernatants were collected 14 days post infection. (FIG. 8A) Quantification of HBsAg and HBeAg secretion. (FIG. 8B) Quantification of secreted infectious particles by DNA extraction and quantification by qPCR.
(§2) The HepaRG line derived from a human cellularhepato carcinoma can differentiate and regain many phenotypic traits of hepatocytes after 4 weeks of culture under defined conditions (Hantz O. et al., 2009, J Gen Virol, 90:127-135). After differentiation, these cells are susceptible to infection at high MOI of HBV virions produced by HepG2.2.15 line. Under these conditions viral production can be observed in the second week post infection. This system allows the study of most steps of the viral replication cycle, including penetration into the cell, translocation of the viral genome into the nucleus, the repair and synthesis of the cccDNA, transcription of pregenomic and viral mRNAs as well as later stages of the replication cycle with the synthesis of viral proteins, the assembly and secretion of infectious virions and the secretion of the viral proteins HBs and HBe.
(§3) The HepaRG system thus allows the monitoring of the secretion of HBsAg and HBeAg and virion incorporated DNA into the cell culture supernatant after infection with HBV infectious virion stocks prepared from the HepG2.2.15 cell line. This system also allows the monitoring of the synthesis of pregenomic and viral mRNAs as well as cytoplasmic replication intermediates and cccDNA. The effects of molecules on cell physiology and cell differentiated functions were explored, including the quantification of hepatic markers such as albumin and apolipoprotein B. The effects of the compounds on the cellular bile acid pathway were monitored by analysis and quantification of the FXR mRNA as well as the SHP and apoA1 encoding mRNAs the expression of which is under the control of FXR

For test [2], the system named is HBV. Briefly: Expression of HBV core protein (HBc) in infected HepaRG cells, immunofluorescence. It counts as cell-based, hepatitis B virus. The settings on record: fixed day 14 post infection, anti-HBc immunofluorescence. As for the experimental part:
Differentiated HepaRG cells grown on coverslips were infected and treated as described in FIG. 1 legend (n=3±SEM). Cells were fixed on day 14 post infection and immunocytochemistry using anti-HBc antibody was carried out.

Test [3] has as its system HBV. Briefly: Secretion of HBsAg in supernatant of HBV infected HepaRG cells. It is filed as cell-based, hepatitis B virus. The settings on record: for effect on HBsAg secretion in supernatant: treated days 4, 7 and 11 post infection, supernatant day 14.
Source text: Differentiated HepaRG cells were infected with HBV (100 geq/cell for 24 hr), then treated 3 successive times (days 4, 7 and 11 post infection) with FXR modulators at indicated concentrations in μM. Cell supernatants were collected 14 days post infection for quantification of HBsAg (Architec Abbott).
as §2, §3

The test system of another test is SHP. Kind of test: SHP mRNA expression in HBV infected HepaRG cells (qPCR). It is filed as cell-based, human. The settings on record: 10 days treatment.
Source text: (§4) Differentiated HepaRG cells were infected and treated as described in FIG. 1 legend. Cells were lysed and RNA was extracted, then reverse transcribed into cDNA for qPCR. The expression levels of 3 genes of interest were quantified: FXRα, SHP and APOA1, as well as 3 housekeeping genes for normalization (n=3±SEM). FXR agonists, GW4064 and 6ECDCA, inhibit the expression of FXR mRNA in a dose-dependent manner. SHP and APOA1 are two genes under the regulation of FXR; SHP is induced by FXR while APOA1 is repressed. Here, SHP mRNA expression increases with GW4064 and 6ECDCA treatments, while APOA1 mRNA expression decreases.
as §3
(In general: Quantitative PCR measures a nucleic acid by following its amplification.)

Test [4] has as its system HBV. Briefly: Secretion of HBeAg in supernatant of HBV infected HepaRG cells. It counts as cell-based, hepatitis B virus. The conditions noted are these: for effect on HBeAg secretion in supernatant: HBV infected HepaRG, treated days 4, 7 and 11 post infection, supernatant day 14.
Source text: as §1, §2, §3

In test [5] the test system is HBV. Briefly: HBV pregenomic/precore mRNA in infected HepaRG cells (qRT-PCR, Northern blot). It counts as cell-based, hepatitis B virus.
Source text: Differentiated HepaRG cells were infected and treated as described in FIG. 1 legend. Cells were lysed and RNA was extracted, then either reverse transcribed into cDNA for quantitative PCR (qRT-PCR) (FIG. 4A) or used in Northern Blot experiment (FIG. 4B). The same experiment was repeated and DNA was extracted. Following plasmid-safe DNase treatment, cccDNA expression was quantified by qPCR experiment using specific HBV cccDNA primers and TaqMan probe (n=3±SEM) (FIG. 4C). cccDNA quantification was normalized to the number of βglobin gene. The expression levels of HBV pregenomic gene were quantified, as well as 3 housekeeping genes for normalization (n=3±SEM). […]
as §3, with “This system also allows the monitoring of the synthesis of pregenomic and viral mRNAs as well as cytoplasmic replication intermediates and cccDNA.” left out

The test system of the next test is APOA1. Briefly: APOA1 mRNA expression in HBV infected HepaRG cells (qPCR). It counts as cell-based, human. The settings on record: 10 days treatment.
Source text: as §4, §3

Another test has as its system FXRα. Briefly: FXR mRNA expression in HBV infected HepaRG cells (qPCR). It counts as cell-based, human. The settings on record: 10 days treatment.
Source text: as §4, §3

The next test addresses T1, FXR (Homo sapiens, UniProt Q96RI1).
T1 construct: host or cells: Huh-7
T1 sequence (Q96RI1 1-486): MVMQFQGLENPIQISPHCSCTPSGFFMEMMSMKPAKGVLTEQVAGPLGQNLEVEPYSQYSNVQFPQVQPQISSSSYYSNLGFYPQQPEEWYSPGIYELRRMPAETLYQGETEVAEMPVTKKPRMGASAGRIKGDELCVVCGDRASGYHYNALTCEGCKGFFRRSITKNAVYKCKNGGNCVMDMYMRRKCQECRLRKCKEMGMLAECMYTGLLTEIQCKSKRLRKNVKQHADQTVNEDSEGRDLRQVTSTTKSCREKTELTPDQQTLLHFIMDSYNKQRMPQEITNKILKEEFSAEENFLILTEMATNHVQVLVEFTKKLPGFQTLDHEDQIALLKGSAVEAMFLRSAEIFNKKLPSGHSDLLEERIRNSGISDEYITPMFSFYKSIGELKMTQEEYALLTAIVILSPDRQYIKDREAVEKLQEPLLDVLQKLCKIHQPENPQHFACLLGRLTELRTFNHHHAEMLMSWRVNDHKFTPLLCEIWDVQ
Briefly: Reporter gene under control of the HBV Enh2/core promoter region (two FXR response elements) in Huh-7 cell line. The settings on record: data not shown. It is filed as cell-based. The source says:
A panel of molecules not previously described and original or reference modulators of FXR activity were first tested on the expression of a reporter gene under the control of the HBV Enh2/core promoter region that contains two FXR response elements in the Huh-7 cell line as described in Ramière C, et al., 2008, J Virol; 82: 10832-10840. Molecules were then classified as FXR agonists or antagonists on the basis respectively of the expression increase or decrease of the reporter gene under the transcription control of FXR. […] Thus some molecules decreased the production of HBsAg in a dose-dependent manner. If the active molecules are classified by their antagonist, agonist or agonist “partial” by the screening test in Huh-7 cell with the reporter gene construct, it appears, against previous odds, that the inhibitory effect on the production of HBsAg grew with the tendency of the molecule to be a potent FXR agonist.

Where [6] appears, read: CsA during infection, then FXR agonist.

“Also recorded” adds a separate entry of the source.

Consider `CC(C)c1onc(-c2c(Cl)cccc2Cl)c1COc1ccc(/C=C/c2cccc(C(=O)O)c2)c(Cl)c1` [GW4064], for which, in the test on HBV [1], the “effect on secretion of HBV DNA (virions) in supernatant” value (shortened to “effect on secretion of HBV DNA”) is “inhibit”. Moreover, in the test on HBV [2], the “expression of HBc in infected cells” value was “drastically reduce; also recorded: strongly inhibited”. Moreover, the “HBsAg secretion, FXR agonist treatment of cells infected in presence of cyclosporin A” value with HBV [3] (setting [6]) is reported as “further reduced”. In addition, in the test with HBV [3] (HBV infected HepaRG), the “effect on HBsAg secretion in supernatant” value is “inhibit; also recorded: strong and dose dependent inhibitory effect; also recorded: dose dependent and strong inhibitory effect”. The “inhibition of HBsAg secretion” value in the test with HBV [3] (at 10 μM, HBV infected HepaRG) was “around 70%”. In addition, in the test with SHP, the “SHP mRNA expression” value is recorded as “increased”. Also, the “HBeAg secretion, FXR agonist treatment of cells infected in presence of cyclosporin A” value in the test with HBV [4] (setting [6]) is “further reduced”. Besides, the “effect on HBeAg secretion in supernatant” value with HBV [4] is “inhibit; also recorded: dose dependent and strong inhibitory effect”. The “expression of HBV pregenomic/precore mRNA” value in the test with HBV [5] is on record as “inhibit”. Moreover, in the test with APOA1, the “APOA1 mRNA expression” value was “decreased”. Moreover, the “FXR mRNA expression” value with FXRα was “inhibit; also recorded: strongly repressed”.
Take `O=C(O)c1cc2c(Cl)c(N3CCN(S(=O)(=O)c4c(Cl)cccc4Cl)CC3)ccc2o1` [PXL007]: the “effect on secretion of HBV DNA” value in the test on HBV [1] is recorded as “represses; also recorded: strongly inhibited”. Moreover, in the test on HBV [3] (HBV infected HepaRG), the “effect on HBsAg secretion in supernatant” value was “represses; also recorded: strongly inhibited”. Further, the “effect on HBeAg secretion in supernatant” value with HBV [4] is “represses; also recorded: strongly inhibited”.
As for `O=C(O)c1cc2c(Br)c(N3CCC(NS(=O)(=O)c4c(Cl)cccc4Cl)CC3)ccc2o1` [PXL0743, 4-Bromo-5-[4-(2,6-dichloro-benzenesulfonylamino)-piperidin-1-yl]-benzofuran-2-carboxylic acid], the “classification as FXR agonist or antagonist by reporter gene expression” value on FXR is “Partial agonists”. Besides, the “effect on HBsAg secretion in supernatant” value in the test with HBV [3] (HBV infected HepaRG) is given as “intermediate profile of inhibition”.
Taken in the same sequence, the figures for `O=C(O)c1cc2c(Br)c(N3CCCN(S(=O)(=O)c4ccccc4Cl)CC3)ccc2o1` [PXL0914, 4-Bromo-5-[4-(2-chloro-benzenesulfonyl)-[1,4]diazepan-1-yl]-benzofuran-2-carboxylic acid] were “Partial agonists” and “intermediate profile of inhibition”.
Taken in the same sequence, the figures for `Cc1c(N2CCN(C(=O)c3c(Cl)cccc3Cl)CC2)ccc2oc(C(=O)O)cc12` [PXL0924, 5-[4-(2,6-Dichloro-benzoyl)-piperazin-1-yl]-4-methyl-benzofuran-2-carboxylic acid] were “Partial agonists” and “intermediate profile of inhibition”.
As to `C[C@H](CCC(=O)O)[C@H]1CC[C@H]2[C@@H]3[C@@H](O)C[C@@H]4C[C@H](O)CC[C@]4(C)[C@H]3CC[C@]12C` [UDCA, ursodesoxycholic acid], the “effect on secretion of HBV DNA” value in the test on HBV [1] was “no or limited effect; also recorded: did not modify”. The “expression of HBc in infected cells” value with HBV [2] is “do not appear to modify; also recorded: did not significantly modify”. For the same compound, the “effect on HBsAg secretion in supernatant” value in the test on HBV [3] (HBV infected HepaRG) is given as “no effect”; in the test on HBV [3] (HBV infected HepaRG, listed as ursodeoxycholate), “did not inhibit”. The “effect on HBeAg secretion in supernatant” value with HBV [4] was “no effect”; in the test on HBV [4] (listed as ursodeoxycholate) it was “did not inhibit”.
With `Nc1ccn([C@@H]2CS[C@H](CO)O2)c(=O)n1` [lamivudine], the “reduction of viral DNA secreted in supernatant” value with HBV [1] (at 10 μM) is reported as 97%.
